We go through 21 compounds from US9518060B2, “Substituted pyrrolo[3,4-c]pyrazoles as PKC kinase inhibitors” (PFIZER INC., priority 2007, dated 2016).

The assay has as its target Protein Kinase C beta 2 (PKCβII) (Homo sapiens (Human), UniProt P05771). Description: PKCβII coupled spectrophotometric kinase assay (PK/LDH, NADH absorbance at 340 nm). Conditions: apparent Ki, ATP competitive inhibition model (Morrison equation); 0.1 mM ATP, 5 nM PKC, 30° C.; read-out: Ki app. In kind it is biochemical. How it is done:
Protein Kinase C beta 2 (PKCβII) catalyzes the production of ADP from ATP that accompanies the phosphoryl transfer to the PKC Pseudosubstrate peptide (A→S, RFARKGSLRQKNV). This transfer is coupled to the oxidation of β-NADH through the activities of Pyruvate Kinase (PK) and Lactate Dehydrogenase (LDH). β-NADH conversion to NAD+ is monitored by the decrease in absorbance at 340 nm (e=6.22 cm^−1 mM^−1) using a Molecular Devices SPECTRA max PLUS spectrophotometer.
A typical assay was carried out on a 96-well, clear microtiter plate in a Molecular Devices spectrophotometer for 20 minutes at 30° C. in 0.1 mL of assay buffer containing 50 mM HEPES, pH 7.4, 5 nM PKC, 23 units of pyruvate kinase, 33 units of lactate dehydrogenase, 0.15 mM peptide, 0.1 mM ATP, 1 mM DTT, 4 mM PEP, 8 mM MgCl2, 0.3 mM NADH, 60 mM CaCl2, 10 mg/mL PS, 50 ng/mL PMA, 7.5% DMSO and from about 10,000 nM to 0.169 nM compound inhibitor. Stock solutions of 3-sn-phosphatidyl-L-serine (PS) and phorbol-12-myristate-13-acetate (PMA) were sonicated for 30 seconds just prior to addition to assay buffer and assays were initiated by the addition of 100 μM ATP.
Steady-state kinetic parameters for the bi-bi kinase reaction were determined at saturating phospho-acceptor peptide substrate concentration (0.15 mM) by fitting initial velocity data to the Michaelis-Menten equation, v=Vmax[S]/(KM+[S]) where v is the measured initial velocity, Vmax is the maximal enzyme velocity, [S] is the ATP substrate concentration, and KM is the Michealis constant for ATP. Enzyme turnover values (kcat) were calculated according to […], where [E] is the total enzyme concentration. Enzyme inhibition constants (apparent Ki values) were determined by fitting initial velocities at variable inhibitor concentrations to a model for ATP competitive inhibition based on the Morrison equation). Morrison, J. F., Biochim. Biophys Acta 185: 269-286 (1969).

Structures can show the parent of a compound that is named as a salt.

Chain of Protein Kinase C beta 2 (PKCβII) (P05771 other isoform, or with tags, fused parts or gaps): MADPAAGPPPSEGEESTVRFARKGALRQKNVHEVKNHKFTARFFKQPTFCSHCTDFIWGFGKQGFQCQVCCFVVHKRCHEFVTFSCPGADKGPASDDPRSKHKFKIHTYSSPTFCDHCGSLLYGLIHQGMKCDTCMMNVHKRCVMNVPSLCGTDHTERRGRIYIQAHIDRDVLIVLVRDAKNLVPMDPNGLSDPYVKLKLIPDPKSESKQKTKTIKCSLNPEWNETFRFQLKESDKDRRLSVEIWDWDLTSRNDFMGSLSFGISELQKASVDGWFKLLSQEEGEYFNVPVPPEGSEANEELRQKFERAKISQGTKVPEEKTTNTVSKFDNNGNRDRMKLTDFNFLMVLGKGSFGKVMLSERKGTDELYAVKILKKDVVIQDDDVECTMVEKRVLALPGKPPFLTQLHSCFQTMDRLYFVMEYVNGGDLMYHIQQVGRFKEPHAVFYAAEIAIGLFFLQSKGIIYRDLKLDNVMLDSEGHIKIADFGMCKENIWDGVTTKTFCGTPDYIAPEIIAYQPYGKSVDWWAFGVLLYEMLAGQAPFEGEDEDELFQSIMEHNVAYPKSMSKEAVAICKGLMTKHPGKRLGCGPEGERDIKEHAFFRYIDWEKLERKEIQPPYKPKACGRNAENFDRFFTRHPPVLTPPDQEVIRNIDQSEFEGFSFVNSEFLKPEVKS

Consider `COc1ncc(F)c(Nc2n[nH]c3c2CN(C(=O)N2CC(CCO)N(C)C[C@@H]2C)C3(C)C)n1` (single isomer, unassigned) [Example K26], for which the Ki was 0.0547 µM.

`CCOc1ncc(F)c(Nc2n[nH]c3c2CN(C(=O)N2C[C@@H](C)N(CC)C[C@@H]2C)C3(C)C)n1` [Example K2, N-(2-ethoxy-5-fluoropyrimidin-4-yl)-6,6-dimethyl-5-{[4-ethyl(2S,5R)-2,5-dimethylpiperazin-1-yl]carbonyl}-1,4,5,6-tetrahydropyrrolo[3,4-c]pyrazol-3-amine]: the Ki amounted to 0.00211 µM.

In the case of `CCOc1ncc(F)c(Nc2n[nH]c3c2CN(C(=O)N2C[C@@H](C)N(CC4(O)CCOCC4)C[C@@H]2C)C3(C)C)n1` [Example K22, 4-[((2R,5S)-4-{[3-[(2-ethoxy-5-fluoropyrimidin-4-yl)amino]-6,6-dimethyl-4,6-dihydropyrrolo[3,4-c]pyrazol-5(1H)-yl]carbonyl}-2,5-dimethylpiperazin-1-yl)methyl]tetrahydro-2H-pyran-4-ol], the Ki is 0.0153 µM.

Take `CCNc1ncc(F)c(Nc2n[nH]c3c2CN(C(=O)N2C[C@@H](C)N(CCCOC)C[C@@H]2C)C3(C)C)n1` [Example B1, N^2-ethyl-5-fluoro-N^4-(5-{[(2S,5R)-4-(3-methoxypropyl)-2,5-dimethylpiperazin-1-yl]carbonyl}-6,6-dimethyl-1,4,5,6-tetrahydropyrrolo[3,4-c]pyrazol-3-yl)pyrimidine-2,4-diamine acetate salt]: the Ki came out at 0.00509 µM.

Regarding `COCCOc1ncc(F)c(Nc2n[nH]c3c2CN(C(=O)N2CC(C)(C)N(C)C[C@@H]2C)C3(C)C)n1` [Example K11, N-[5-fluoro-2-(2-methoxyethoxy)pyrimidin-4-yl]-6,6-dimethyl-5-{[(2S)-2,4,5,5-tetramethylpiperazin-1-yl]carbonyl}-1,4,5,6-tetrahydropyrrolo[3,4-c]pyrazol-3-amine], the Ki is 0.0427 µM.

For `Cc1ccnc(Nc2n[nH]c3c2CN(C(=O)N2C[C@@H](C)N(C4CCOCC4)C[C@@H]2C)C3(C)C)n1` [Example J12, 5-{[(2S,5R)-2,5-dimethyl-4-(tetrahydro-2H-pyran-4-yl)piperazin-1-yl]carbonyl}-6,6-dimethyl-N-(4-methylpyrimidin-2-yl)-1,4,5,6-tetrahydropyrrolo[3,4-c]pyrazol-3-amine], the Ki was less than 0.01 µM.

Consider `COCCCOc1ncc(F)c(Nc2n[nH]c3c2CN(C(=O)N2C[C@@H](C)N(C)C[C@@H]2C)C3(C)C)n1` [Example K10, N-[5-fluoro-2-(3-methoxypropoxy)pyrimidin-4-yl]-6,6-dimethyl-5-{[(2S,5R)-2,4,5-trimethylpiperazin-1-yl]carbonyl}-1,4,5,6-tetrahydropyrrolo[3,4-c]pyrazol-3-amine], for which the Ki was determined as 0.0284 µM.

Turning to `CCOc1ncc(F)c(Nc2n[nH]c3c2CN(C(=O)N2CC(CCO)N(C)C[C@@H]2C)C3(C)C)n1` (stereo partly drawn) [Example K23, 2-((5S)-4-{[3-[(2-ethoxy-5-fluoropyrimidin-4-yl)amino]-6,6-dimethyl-4,6-dihydropyrrolo[3,4-c]pyrazol-5(1H)-yl]carbonyl}-1,5-dimethylpiperazin-2-yl)ethanol], the Ki is less than 0.01 µM.

`Cc1ccc(F)c(Nc2n[nH]c3c2CN(C(=O)N2C[C@@H](C)N(C)C[C@@H]2C)C3(C)C)n1` [Example J3, N-(3-fluoro-6-methylpyridin-2-yl)-6,6-dimethyl-5-{[(2S,5R)-2,4,5-trimethylpiperazin-1-yl]carbonyl}-1,4,5,6-tetrahydropyrrolo[3,4-c]pyrazol-3-amine]: the Ki worked out at 0.00263 µM.

In the case of `COCCCN1C[C@H](C)N(C(=O)N2Cc3c(Nc4nc(OCC(F)(F)F)ncc4F)n[nH]c3C2(C)C)C[C@H]1C` [Example K6, N-[5-fluoro-2-(2,2,2-trifluoroethoxy)pyrimidin-4-yl]-5-{[(2S,5R)-4-(3-methoxypropyl)-2,5-dimethylpiperazin-1-yl]carbonyl}-6,6-dimethyl-1,4,5,6-tetrahydropyrrolo[3,4-c]pyrazol-3-amine], the Ki amounted to 0.000376 µM.

As for `Cc1ncc(F)c(Nc2n[nH]c3c2CN(C(=O)N2C[C@@H](C)N(C4CCOCC4)C[C@@H]2C)C3(C)C)n1` [Example H7, 5-{[(2S,5R)-2,5-dimethyl-4-(tetrahydro-2H-pyran-4-yl)piperazin-1-yl]carbonyl}-N-(5-fluoro-2-methylpyrimidin-4-yl)-6,6-dimethyl-1,4,5,6-tetrahydropyrrolo[3,4-c]pyrazol-3-amine], the Ki stood at 0.022 µM.

With `COCCCOc1ncc(F)c(Nc2n[nH]c3c2CN(C(=O)C2(F)CCN(C)CC2)C3(C)C)n1` [Example L3, N-[5-fluoro-2-(3-methoxypropoxy)pyrimidin-4-yl]-5-[(4-fluoro-1-methylpiperidin-4-yl)carbonyl]-6,6-dimethyl-1,4,5,6-tetrahydropyrrolo[3,4-c]pyrazol-3-amine], the Ki worked out at 0.0586 µM.

On to `Cc1ccc(F)c(Nc2n[nH]c3c2CN(C(=O)N2C[C@@H]4CCCN4C[C@@H]2C)C3(C)C)n1` [Example J5, N-(3-fluoro-6-methylpyridin-2-yl)-6,6-dimethyl-5-{[(3S,8aS)-3-methylhexahydropyrrolo[1,2-a]pyrazin-2(1H)-yl]carbonyl}-1,4,5,6-tetrahydropyrrolo[3,4-c]pyrazol-3-amine], for which the Ki worked out at 0.00643 µM.

`CCOc1ccnc(Nc2n[nH]c3c2CN(C(=O)N2C[C@@H](C)N(CCCOC)C[C@@H]2C)C3(C)C)n1` [Example M2, N-(4-ethoxypyrimidin-2-yl)-5-{[(2S,5R)-4-(3-methoxypropyl)-2,5-dimethylpiperazin-1-yl]carbonyl}-6,6-dimethyl-1,4,5,6-tetrahydropyrrolo[3,4-c]pyrazol-3-amine]: the Ki was 0.0161 µM.

Take `CCN1C[C@H](C)N(C(=O)N2Cc3c(Nc4nc(C)ncc4F)n[nH]c3C2(C)C)C[C@H]1C` [AA2, 5-{[(2S,5R)-4-ethyl-2,5-dimethylpiperazin-1-yl]carbonyl}-N-(5-fluoro-2-methylpyrimidin-4-yl)-6,6-dimethyl-1,4,5,6-tetrahydropyrrolo[3,4-c]pyrazol-3-amine]: the Ki worked out at 0.0189 µM.

Consider `COc1ccnc(Nc2n[nH]c3c2CN(C(=O)N2C[C@@H](C)N(CC4CCOCC4)C[C@@H]2C)C3(C)C)n1` [Example J14, 5-{[(2S,5R)-2,5-dimethyl-4-(tetrahydro-2H-pyran-4-ylmethyl)piperazin-1-yl]carbonyl}-N-(4-methoxypyrimidin-2-yl)-6,6-dimethyl-1,4,5,6-tetrahydropyrrolo[3,4-c]pyrazol-3-amine], for which the Ki is 0.0192 µM.

In the case of `C[C@@H]1CN(C(=O)N2Cc3c(Nc4ccnc(C#N)n4)n[nH]c3C2(C)C)[C@@H](C)CN1C` [Example B6, 4-[(6,6-dimethyl-5-{[(2S,5R)-2,4,5-trimethylpiperazin-1-yl]carbonyl}-1,4,5,6-tetrahydropyrrolo[3,4-c]pyrazol-3-yl)amino]pyrimidine-2-carbonitrile], the Ki was 0.00243 µM.

For the compound `Cc1ncc(F)c(Nc2n[nH]c3c2CN(C(=O)N2C[C@@H](C)N(CC4CCOCC4)C[C@@H]2C)C3(C)C)n1` [Example H6, 5-{[(2S,5R)-2,5-dimethyl-4-(tetrahydro-2H-pyran-4-ylmethyl)piperazin-1-yl]carbonyl}-N-(5-fluoro-2-methylpyrimidin-4-yl)-6,6-dimethyl-1,4,5,6-tetrahydropyrrolo[3,4-c]pyrazol-3-amine], the Ki is 0.0149 µM.

As to `CCNc1ncc(F)c(Nc2n[nH]c3c2CN(C(=O)N2C[C@@H](C)N(C)C[C@@H]2C)C3(C)C)n1` [Example B3, N^4-(6,6-dimethyl-5-{[(2S,5R)-2,4,5-trimethylpiperazin-1-yl]carbonyl}-1,4,5,6-tetrahydropyrrolo[3,4-c]pyrazol-3-yl)-N^2-ethyl-5-fluoropyrimidine-2,4-diamine], the Ki was 0.00203 µM.

With `CCOc1ncc(F)c(Nc2n[nH]c3c2CN(C(=O)N2CC(C)(C)N(C)C[C@@H]2C)C3(C)C)n1` [Example K3, N-(2-ethoxy-5-fluoropyrimidin-4-yl)-6,6-dimethyl-5-{[(2S)-2,4,5,5-tetramethylpiperazin-1-yl]carbonyl}-1,4,5,6-tetrahydropyrrolo[3,4-c]pyrazol-3-amine], the Ki was found to be 0.000912 µM.

As for `CCNc1ncc(F)c(Nc2n[nH]c3c2CN(C(=O)N2C[C@@H](C)N(CCC(F)(F)F)C[C@@H]2C)C3(C)C)n1` [Example B5, N4-(5-{[(2S,5R)-2,5-dimethyl-4-(3,3,3-trifluoropropyl)piperazin-1-yl]carbonyl}-6,6-dimethyl-1,4,5,6-tetrahydropyrrolo[3,4-c]pyrazol-3-yl)-N2-ethyl-5-fluoropyrimidine-2,4-diamine], the Ki is 0.0298 µM.
